Values joined by “and” are separate entries in the source; they are usually repeats but may differ in a detail not shown here. Identical values can stand only once. Toxic doses and inconclusive results are not listed.
Test system: L1210 leukemia ip in BDF1 mice, survival T/C
Experiment: NCI In Vivo Anticancer Drug Screen. Data for tumor model L1210 Leukemia (intraperitoneal) in B6D2F1 (BDF1) mice
Conditions: endpoint: mean survival time, higher = longer survival
In short: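 Tumor cells were implanted, animals were treated, and survival was followed. The result divides the treated measurement by the vehicle-control measurement.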

[1] = dose: 100.0 mg/kg/injection, schedule: Q04DX003 (ip), vehicle: Klucel (hydroxypropylcellulose) (HPC)
[2] = dose: 200.0 mg/kg/injection, schedule: Q04DX003 (ip), vehicle: Klucel (hydroxypropylcellulose) (HPC)
[3] = dose: 400.0 mg/kg/injection, schedule: Q04DX003 (ip), vehicle: Klucel (hydroxypropylcellulose) (HPC)
[4] = dose: 100.0 mg/kg/injection, schedule: Q04DX003 (ip), vehicle: saline with Tween-80
[5] = dose: 100.0 mg/kg/injection, schedule: Q04DX003 (ip), vehicle: saline
[6] = dose: 200.0 mg/kg/injection, schedule: Q04DX003 (ip), vehicle: saline with Tween-80
[7] = dose: 200.0 mg/kg/injection, schedule: Q04DX003 (ip), vehicle: saline
[8] = dose: 400.0 mg/kg/injection, schedule: Q04DX003 (ip), vehicle: saline with Tween-80
[9] = dose: 400.0 mg/kg/injection, schedule: Q04DX003 (ip), vehicle: saline
[10] = dose: 100.0 mg/kg/injection, schedule: Q01DX009 (ip), vehicle: saline with Tween-80
[11] = dose: 200.0 mg/kg/injection, schedule: Q01DX009 (ip), vehicle: saline with Tween-80
[12] = dose: 25.0 mg/kg/injection, schedule: Q01DX009 (ip), vehicle: saline
[13] = dose: 50.0 mg/kg/injection, schedule: Q01DX009 (ip), vehicle: saline
[14] = dose: 100.0 mg/kg/injection, schedule: Q01DX009 (ip), vehicle: saline
[15] = dose: 200.0 mg/kg/injection, schedule: Q01DX009 (ip), vehicle: saline
[16] = dose: 50.0 mg/kg/injection, schedule: Q01DX009 (ip), vehicle: Klucel (hydroxypropylcellulose) (HPC)
[17] = dose: 100.0 mg/kg/injection, schedule: Q01DX009 (ip), vehicle: Klucel (hydroxypropylcellulose) (HPC)
[18] = dose: 200.0 mg/kg/injection, schedule: Q01DX009 (ip), vehicle: Klucel (hydroxypropylcellulose) (HPC)

## Cn1c2ccc3c(c2c(=O)c2ccoc21)C=CC(C)(C)O3
dose: 50.0 mg/kg/injection, schedule: Q01DX001 (ip), vehicle: carboxymethylcellulose (CMC)
  T/C: 98 % of control
dose: 100.0 mg/kg/injection, schedule: Q01DX001 (ip), vehicle: carboxymethylcellulose (CMC)
  T/C: 98 % of control
dose: 200.0 mg/kg/injection, schedule: Q01DX001 (ip), vehicle: carboxymethylcellulose (CMC)
  T/C: 91 % of control
dose: 400.0 mg/kg/injection, schedule: Q01DX001 (ip), vehicle: carboxymethylcellulose (CMC)
  T/C: 98 % of control

## NC(=S)N/N=C(\c1ccc(Cl)cc1)C1CC1
dose: 3.0 mg/kg/injection, schedule: Q01DX Z (ip), vehicle: carboxymethylcellulose (CMC)
  T/C: 96 % of control
dose: 7.0 mg/kg/injection, schedule: Q01DX Z (ip), vehicle: carboxymethylcellulose (CMC)
  T/C: 96 % of control
dose: 7.0 mg/kg/injection, schedule: Q01DX Z (sc), vehicle: carboxymethylcellulose (CMC)
  T/C: 121 % of control
dose: 15.0 mg/kg/injection, schedule: Q01DX Z (ip), vehicle: carboxymethylcellulose (CMC)
  T/C: 97 % of control
dose: 15.0 mg/kg/injection, schedule: Q01DX Z (sc), vehicle: carboxymethylcellulose (CMC)
  T/C: 120 % of control

## Cc1cccc(C)c1NC(=O)Nc1ccc2c(c1)OCO2
[1]
  T/C: 93 % of control
[2]
  T/C: 92 % of control
[3]
  T/C: 88 % of control

## O=C(NCc1ccccc1)C1C2CC3OC(=O)C1C3C2 (configuration not stated)
[4]
  T/C: 98 % of control
[5]
  T/C: 123 % of control
[6]
  T/C: 95 % of control
[7]
  T/C: 104 % of control
[8]
  T/C: 95 % of control
[9]
  T/C: 104 % of control

## COc1ccc(OC(C)OCCOCCOC(C)=O)cc1 (configuration not stated)
dose: 100.0 mg/kg/injection, schedule: Q04DX002 (ip), vehicle: saline
  T/C: 104 % of control
dose: 200.0 mg/kg/injection, schedule: Q04DX002 (ip), vehicle: saline
  T/C: 93 % of control
dose: 400.0 mg/kg/injection, schedule: Q04DX002 (ip), vehicle: saline
  T/C: 107 % of control

## CCCCN(CCCC)CCCCO
dose: 50.0 mg/kg/injection, schedule: Q01DX009 (ip), vehicle: saline with Tween-80
  T/C: 116 % of control
[10]
  T/C: 101 % of control
[4]
  T/C: 102 % of control
[11]
  T/C: 101 % of control
[6]
  T/C: 96 % of control

## CC(C)NNC(=O)C(N)CO (configuration not stated)
[12]
  T/C: 91 % of control
[13]
  T/C: 97 % of control
[14]
  T/C: 105 % of control
[15]
  T/C: 97 % of control
dose: 400.0 mg/kg/injection, schedule: Q01DX009 (ip), vehicle: saline
  T/C: 107 % of control

## CC(C)C1CC2CCC3C(C)(C(=O)O)CCCC3(C)C2CC1CO (configuration not stated)
[4]
  T/C: 92 % of control
[6]
  T/C: 92 % of control
[8]
  T/C: 93 % of control

## OCC(O)C1CCCCN1 (configuration not stated)
[14]
  T/C: 91 % of control
[5]
  T/C: 97 % of control
[15]
  T/C: 100 % of control
[7]
  T/C: 97 % of control
[9]
  T/C: 97 % of control

## CCc1ccc2c(c1)Nc1ccccc1S2
[16]
  T/C: 97 % of control
dose: 50.0 mg/kg/injection, schedule: Q04DX003 (ip), vehicle: Klucel (hydroxypropylcellulose) (HPC)
  T/C: 91 % of control
[17]
  T/C: 97 % of control
[1]
  T/C: 96 % of control
[18]
  T/C: 101 % of control
[2]
  T/C: 97 % of control
[3]
  T/C: 86 % of control

## Cc1[nH]c2ccc([N+](=O)[O-])cc2c(=O)c1[N+](=O)[O-] (tested in a mixture with another compound)
[16]
  T/C: 94 % of control
[17]
  T/C: 87 % of control
[18]
  T/C: 105 % of control

## O=[N+]([O-])c1ccc(N/N=C(\Oc2ccccc2)c2ccc([N+](=O)[O-])cc2)cc1
[4]
  T/C: 94 % of control
[6]
  T/C: 90 % of control

## COc1cc(C)c(OC)cc1C
[4]
  T/C: 99 % of control
[6]
  T/C: 99 % of control
[8]
  T/C: 94 % of control

## CCS(=O)CCNC(=O)NS(=O)(=O)c1ccc(C)cc1 (configuration not stated)
[4]
  T/C: 100 % of control
[6]
  T/C: 101 % of control
[8]
  T/C: 97 % of control

## CC1C(=O)CC(=O)C1=O (configuration not stated)
dose: 50.0 mg/kg/injection, schedule: Q01DX009 (ip), vehicle: saline sonified
  T/C: 104 % of control
dose: 100.0 mg/kg/injection, schedule: Q01DX009 (ip), vehicle: saline sonified
  T/C: 117 % of control
[5]
  T/C: 100 % of control
dose: 200.0 mg/kg/injection, schedule: Q01DX009 (ip), vehicle: saline sonified
  T/C: 104 % of control
[7]
  T/C: 100 % of control

## CCCC(C)c1cc([N+](=O)[O-])cc([N+](=O)[O-])c1O (configuration not stated)
dose: 3.12 mg/kg/injection, schedule: Q01DX009 (ip), vehicle: saline with Tween-80
  T/C: 107 % of control
dose: 6.25 mg/kg/injection, schedule: Q01DX009 (ip), vehicle: saline with Tween-80
  T/C: 98 % of control
dose: 12.5 mg/kg/injection, schedule: Q01DX009 (ip), vehicle: saline with Tween-80
  T/C: 91 % of control

## Cc1cc2c3ccccc3ncn2n1
[1]
  T/C: 101 % of control
[2]
  T/C: 103 % of control
[3]
  T/C: 109 % of control

## CCCCNC(=O)C1C2C=CC(C2)C1C(=O)NCCCC (configuration not stated)
[4]
  T/C: 96 % of control
[6]
  T/C: 96 % of control
[8]
  T/C: 91 % of control

## CN1CC2=C(C1)C(N(C(=O)c1ccc(-c3ccccc3)cc1)C(=O)c1ccc(-c3ccccc3)cc1)=NCN2
[17]
  T/C: 97 % of control
[18]
  T/C: 94 % of control
dose: 400.0 mg/kg/injection, schedule: Q01DX009 (ip), vehicle: Klucel (hydroxypropylcellulose) (HPC)
  T/C: 94 % of control

## CC(=O)N1c2ccccc2C(=O)OC1c1ccc2c(c1)CCC2 (configuration not stated)
[1]
  T/C: 94 % of control
[2]
  T/C: 89 % of control
[3]
  T/C: 102 % of control

## Nc1ncnc2c1c(C1=NCCN1)cn2C1OC(CO)C(O)C1O (configuration not stated)
[12]
  T/C: 179 % of control
[13]
  T/C: 155 % of control and 230 % of control
dose: 200.0 mg/kg/injection, schedule: Q01DX005 (ip), vehicle: saline
  T/C: 105 % of control

## COc1ccc2c(cc1=O)CC=CC1CC(OC)C(OC)C(OC)C21 (configuration not stated)
[4]
  T/C: 92 % of control
[6]
  T/C: 93 % of control
[8]
  T/C: 101 % of control

## O=C1c2ccccc2C(=O)c2c1ccc1c2CCCC1
[16]
  T/C: 91 % of control
[17]
  T/C: 94 % of control
[18]
  T/C: 100 % of control

## CC(=O)OCC1OC(C(N)=O)C(OC(C)=O)C1OC(C)=O (configuration not stated)
dose: 100.0 mg/kg/injection, schedule: Q01DX001 (ip), vehicle: other
  T/C: 102 % of control
[4]
  T/C: 93 % of control
dose: 200.0 mg/kg/injection, schedule: Q01DX001 (ip), vehicle: other
  T/C: 98 % of control
[6]
  T/C: 104 % of control
dose: 400.0 mg/kg/injection, schedule: Q01DX001 (ip), vehicle: other
  T/C: 98 % of control
[8]
  T/C: 98 % of control

## CC(C)CCC[C@@H](C)[C@H]1CC[C@H]2[C@@H]3CC[C@H]4C[C@H](NC(=O)N(CCCl)N=O)CC[C@]4(C)[C@H]3CC[C@]12C
dose: 10.0 mg/kg/injection, schedule: Q01DX001 (ip), vehicle: other
  T/C: 103 % of control
dose: 23.0 mg/kg/injection, schedule: Q01DX001 (ip), vehicle: other
  T/C: 95 % of control
dose: 46.0 mg/kg/injection, schedule: Q01DX001 (ip), vehicle: other
  T/C: 104 % of control
dose: 93.0 mg/kg/injection, schedule: Q01DX001 (ip), vehicle: other
  T/C: 103 % of control
dose: 187.0 mg/kg/injection, schedule: Q01DX001 (ip), vehicle: other
  T/C: 103 % of control
dose: 375.0 mg/kg/injection, schedule: Q01DX001 (ip), vehicle: other
  T/C: 110 % of control
dose: 500.0 mg/kg/injection, schedule: Q01DX001 (ip), vehicle: other
  T/C: 104 % of control
dose: 1000.0 mg/kg/injection, schedule: Q01DX001 (ip), vehicle: other
  T/C: 119 % of control

## OC(c1ccccc1)c1nnc(C(O)c2ccccc2)nn1 (configuration not stated)
dose: 100.0 mg/kg/injection, schedule: Q01DX001 (ip), vehicle: Klucel (hydroxypropylcellulose) (HPC)
  T/C: 92 % of control
[1]
  T/C: 94 % of control
dose: 200.0 mg/kg/injection, schedule: Q01DX001 (ip), vehicle: Klucel (hydroxypropylcellulose) (HPC)
  T/C: 95 % of control
[2]
  T/C: 93 % of control
dose: 400.0 mg/kg/injection, schedule: Q01DX001 (ip), vehicle: Klucel (hydroxypropylcellulose) (HPC)
  T/C: 95 % of control
[3]
  T/C: 100 % of control

## Fc1ccc(C=Nc2cccc(Cl)c2)cc1
[10]
  T/C: 95 % of control
[4]
  T/C: 103 % of control
[11]
  T/C: 97 % of control
[6]
  T/C: 93 % of control
dose: 400.0 mg/kg/injection, schedule: Q01DX009 (ip), vehicle: saline with Tween-80
  T/C: 100 % of control
[8]
  T/C: 98 % of control

From PubChem BioAssay AID248 (DTP/NCI, 2004)
